For twelve compounds, Activity and inhibition results are on record in ChEMBL document CHEMBL4138234, “Aegeline inspired synthesis of novel amino alcohol and thiazolidinedione hybrids with antiadipogenic activity in 3T3-L1 cells” (Eur J Med Chem, 2018).

In series [1] the test system is 3T3-L1. Nature of the series: Anti-adipogenic activity in mouse 3T3L1 preadipocytes assessed as reduction in lipid accumulation at 20 uM by Oil Red O absorbance assay. It counts as functional, cell-based.
In series [2] the test system is 3T3-L1. The experiment in a line: Cytotoxicity against mouse 3T3L1 cells. It counts as cell-based.
Series [3] deals with 3T3-L1. Nature of the series: Anti-adipogenic activity in mouse 3T3L1 cells assessed as reduction in lipid accumulation at 20 uM incubated for 2 to 4 days by Oil Red O staining based microscopic method. It counts as functional, cell-based.
For series [4], the species on record is Mus musculus. Nature of the series: Inhibition of PPARgamma/CEBPalpha-mediated increase in FAS protein expression in mouse 3T3L1 preadipocytes at 20 uM up to 6 days by Western blot analysis. It counts as cell-based. On the technique in general: In western blotting, separated proteins are transferred to a membrane and probed.
Series [5] has as its system 3T3-L1. Nature of the series: Cell cycle arrest in mouse 3T3L1 cells assessed as accumulation at S phase at 20 uM after 24 hrs by propidium iodide-staining based flow cytometry (reference value: 22%). The format is functional.
For series [6], the target named is CCAAT/enhancer-binding protein alpha (Mus musculus) (UniProt P53566). The experiment in a line: Inhibition of C/EBPalpha mRNA levels in mouse 3T3L1 preadipocytes at 20 uM after 6 days by RT-PCR analysis. It counts as cell-based.
Sequence of CCAAT/enhancer-binding protein alpha (Mus musculus) (P53566 whole entry): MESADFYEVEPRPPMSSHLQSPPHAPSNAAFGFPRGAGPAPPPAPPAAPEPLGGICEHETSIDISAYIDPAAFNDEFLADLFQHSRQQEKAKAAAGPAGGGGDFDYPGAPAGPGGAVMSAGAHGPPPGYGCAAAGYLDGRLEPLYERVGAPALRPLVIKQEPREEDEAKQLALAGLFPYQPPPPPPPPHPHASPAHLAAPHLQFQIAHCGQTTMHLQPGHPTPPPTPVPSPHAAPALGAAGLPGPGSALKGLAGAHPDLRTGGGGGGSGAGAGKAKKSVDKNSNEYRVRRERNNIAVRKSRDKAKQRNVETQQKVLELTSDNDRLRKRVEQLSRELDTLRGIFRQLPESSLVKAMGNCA
Series [7] deals with 3T3-L1. The experiment in a line: Cell cycle arrest in mouse 3T3L1 cells assessed as accumulation at S phase at 10 uM after 24 hrs by propidium iodide-staining based flow cytometry (reference value: 22%). The format is functional. On the technique in general: In flow cytometry, cells or beads pass a laser one at a time.
The test system of series [8] is 3T3-L1. Nature of the series: Anti-adipogenic activity in mouse 3T3L1 cells assessed as reduction in lipid accumulation at 20 uM incubated up to 6 days by Oil Red O absorbance assay. The format is functional, cell-based.
Series [9] has as its system 3T3-L1. Nature of the series: Anti-adipogenic activity in mouse 3T3L1 cells assessed as reduction in lipid accumulation at 20 uM incubated for 2 to 6 days by Oil Red O staining based microscopic method. The format is functional, cell-based.
The test system of series [10] is 3T3-L1. The experiment in a line: Anti-adipogenic activity in mouse 3T3L1 preadipocytes assessed as reduction in MDI induced-lipid accumulation at 10 uM after 20 mins by Oil Red O staining-based assay. It counts as functional, cell-based.
Series [11] deals with 3T3-L1. The experiment in a line: Anti-adipogenic activity in mouse 3T3L1 cells assessed as reduction in lipid accumulation at 20 uM incubated for 4 to 6 days by Oil Red O staining based microscopic method. The format is functional, cell-based.
For series [12], the target named is T1, Peroxisome proliferator-activated receptor gamma (Mus musculus) (UniProt P37238).
T1 sequence (whole entry): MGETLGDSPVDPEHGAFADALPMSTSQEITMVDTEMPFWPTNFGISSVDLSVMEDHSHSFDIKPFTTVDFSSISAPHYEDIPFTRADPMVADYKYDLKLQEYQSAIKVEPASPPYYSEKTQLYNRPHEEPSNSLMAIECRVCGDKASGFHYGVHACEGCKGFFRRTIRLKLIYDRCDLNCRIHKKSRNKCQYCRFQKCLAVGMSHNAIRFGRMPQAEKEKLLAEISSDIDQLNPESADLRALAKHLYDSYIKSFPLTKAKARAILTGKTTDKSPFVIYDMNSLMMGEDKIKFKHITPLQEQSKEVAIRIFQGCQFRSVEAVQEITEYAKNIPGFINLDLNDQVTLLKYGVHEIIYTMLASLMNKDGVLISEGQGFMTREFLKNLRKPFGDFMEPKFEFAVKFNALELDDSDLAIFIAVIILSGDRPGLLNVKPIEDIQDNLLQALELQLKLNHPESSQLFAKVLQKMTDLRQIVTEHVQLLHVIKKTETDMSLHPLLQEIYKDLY
Nature of the series: Inhibition of PPARgamma protein expression in mouse 3T3L1 preadipocytes at 20 uM up to 6 days by Western blot analysis. The format is cell-based.

Series [13] has as its system 3T3-L1. The experiment in a line: Anti-adipogenic activity in mouse 3T3L1 cells assessed as reduction in lipid accumulation at 20 uM incubated up to 6 days by Oil Red O staining based microscopic method. It counts as functional, cell-based.
Series [14] is filed under the species Mus musculus. Nature of the series: Inhibition of PPARgamma/CEBPalpha-mediated increase in aP2 mRNA levels in mouse 3T3L1 preadipocytes at 20 uM after 6 days by RT-PCR analysis. The format is cell-based.
The species entered for series [15] is Mus musculus. The experiment in a line: Inhibition of PPARgamma/CEBPalpha-mediated increase in FAS mRNA levels in mouse 3T3L1 preadipocytes at 20 uM after 6 days by RT-PCR analysis. The format is cell-based.
Series [16] has as its target CCAAT/enhancer-binding protein alpha (Mus musculus) (UniProt P53566). Nature of the series: Inhibition of C/EBPalpha protein expression in mouse 3T3L1 preadipocytes at 20 uM up to 6 days by Western blot analysis. It counts as cell-based.
Series [17] has as its system 3T3-L1. The experiment in a line: Anti-adipogenic activity in mouse 3T3L1 cells assessed as reduction in lipid accumulation at 20 uM incubated for 4 to 6 days by Oil Red O absorbance method. The format is functional, cell-based.
The species entered for series [18] is Mus musculus. Nature of the series: Inhibition of PPARgamma/CEBPalpha-mediated increase in aP2 protein expression in mouse 3T3L1 preadipocytes at 20 uM up to 6 days by Western blot analysis. The format is cell-based.
Series [19] relates to 3T3-L1. The experiment in a line: Anti-adipogenic activity in mouse 3T3L1 cells assessed as reduction in lipid accumulation at 20 uM incubated for 2 to 6 days by Oil Red O absorbance method. It counts as functional, cell-based.
Series [20] deals with 3T3-L1. The experiment in a line: Anti-adipogenic activity in mouse 3T3L1 preadipocytes in differentiation media assessed as reduction in lipid accumulation by Oil Red O staining microscopic method. It counts as functional, cell-based.
Series [21] concerns the target T1, Peroxisome proliferator-activated receptor gamma (Mus musculus). The experiment in a line: Inhibition of PPARgamma mRNA levels in mouse 3T3L1 preadipocytes at 20 uM after 6 days by RT-PCR analysis. It counts as cell-based.
Series [22] deals with 3T3-L1. Nature of the series: Cell cycle arrest in mouse 3T3L1 cells assessed as accumulation at S phase at 10 to 20 uM after 16 hrs by propidium iodide-staining based flow cytometry. The format is functional.
For series [23], the system named is 3T3-L1. The experiment in a line: Anti-adipogenic activity in mouse 3T3L1 preadipocytes in differentiation medium assessed as reduction in lipid accumulation at 20 uM by Oil Red O absorbance assay relative to control. The format is functional. More on the design: scale not given: the % may be the effect or the level left.
For series [24], the system named is 3T3-L1. The experiment in a line: Anti-adipogenic activity in mouse 3T3L1 cells assessed as reduction in lipid accumulation at 20 uM incubated for 2 to 4 days by Oil Red O absorbance method. It counts as functional, cell-based.

Structures are written as SMILES. Active and inactive are the calls of the source. The calls are words filed in the database; no cut-off is given here.

With `O=C1S/C(=C\c2ccc(OCC(O)CNCc3cccnc3)cc2)C(=O)N1Cc1ccccc1` (centres undefined), the result in [1] was inactive.

As to `O=C1S/C(=C\c2ccc(OCC(O)CNCc3cccnc3)cc2)C(=O)N1Cc1ccccc1Br` (centres undefined), the outcome in series [1] was inactive.

For the compound `O=C1NC(=O)/C(=C/c2ccc(OCC(O)COC(=O)c3cccnc3)cc2)S1` (centres undefined), the result in series [1] was inactive.

With `O=C1S/C(=C\c2ccc(OCC(O)CNCc3cccnc3)cc2)C(=O)N1Cc1ccc(F)cc1` (centres undefined), the result in [1] was inactive.

As for `O=C1S/C(=C\c2ccc(OCC(O)CNCc3ccccn3)cc2)C(=O)N1Cc1ccccc1Br` (centres undefined), the outcome in series [1] was Active.

As for `COc1ccc(C(=O)OCC(O)COc2ccc(/C=C3\SC(=O)NC3=O)cc2)c(OC)c1` (centres undefined), the outcome in series [1] was inactive.

Take `CC(NCC(O)COc1ccc(/C=C2\SC(=O)N(Cc3ccccc3Br)C2=O)cc1)c1ccccc1` (centres undefined): the Activity result in series [2] is reported as “Toxic”.

As to `O=C(Cc1ccc(Cl)cc1)OCC(O)COc1ccc(/C=C2\SC(=O)NC2=O)cc1` (centres undefined), the outcome in [1] was inactive.

In the case of `O=C1S/C(=C\c2ccc(OCC(O)CNCc3ccccn3)cc2)C(=O)N1Cc1ccc(F)cc1` (centres undefined), the Activity result in series [2] is listed as “Toxic”.

In the case of `O=C1NC(=O)/C(=C/c2ccc(OCC(O)COC(=O)c3ccc(Cl)nc3)cc2)S1` (centres undefined), the result in series [1] was inactive.

As for `CC(NCC(O)COc1ccc(/C=C2\SC(=O)N(Cc3ccccc3)C2=O)cc1)c1ccccc1` (centres undefined), in series [2], the Activity entry is “Toxic”.

As to `O=C1S/C(=C\c2ccc(OCC(O)CNCc3ccccn3)cc2)C(=O)N1Cc1ccccc1` (centres undefined), the outcome in [3], in series [8], in series [9], in series [10], in series [11] and in series [13] was Active. The outcome in series [17], in [1], in series [19] and in [24] was Active. In addition, the inhibition entry in series [4], in [6], in series [12], in series [14], in series [15] and in series [16] was “Active” throughout. Further, the inhibition entry in series [18] and in [21] was “Active” each time. Further, the Activity in series [5] was 36%; in [7], 37%; in [20], “Dose-dependent effect”; in series [23], greater than 50%. For the same compound, the outcome in series [22] was inactive.
